Article PMC10810133, “Exploring the inhibitory potential of in silico-designed small peptides on Helicobacter pylori Hp0231 (DsbK), a periplasmic oxidoreductase involved in disulfide bond formation” (Frontiers in Molecular Biosciences, 2024)
Entries after “also recorded” stand apart in the source; their conditions may differ. Where two headings read alike, the source gives them in different places. Residues, ends and D or L forms follow the SMILES beside them.

Columns and labels:
Hp0231 [1] = molecular target: T1, Hp0231 (Helicobacter pylori, UniProt O25017); assay: biochemical
T1 sequence (O25017 entry or part of it): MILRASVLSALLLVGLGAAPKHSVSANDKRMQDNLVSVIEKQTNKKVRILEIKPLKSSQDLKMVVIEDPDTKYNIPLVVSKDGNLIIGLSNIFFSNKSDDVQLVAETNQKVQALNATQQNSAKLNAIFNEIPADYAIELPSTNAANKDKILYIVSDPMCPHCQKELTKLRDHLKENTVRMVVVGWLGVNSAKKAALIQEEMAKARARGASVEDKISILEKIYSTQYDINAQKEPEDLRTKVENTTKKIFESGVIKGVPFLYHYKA
Procedure: 2.3.7 Assessment of interactions between inhibitory peptides and Hp0231 or Hp0231APHA using microscale thermophoresis
The purified Hp0231 and Hp0231APHA proteins were suspended in HEPES buffer (20 mM HEPES, 150 mM NaCl, 0.05% (v/v) TWEEN 20, pH 7.4). Protein concentrations were determined by absorption measurements at 280 nm, using the extinction coefficients ε280 = 16,055 M^−1 × cm^−1 for Hp0231 and ε280 = 15,930 M^−1 × cm^−1 for Hp0231APHA, calculated using Quest Calculate™ Protein Concentration Calculator (AAT BioQuest, https://www.aatbio.com/tools/calculate-protein-concentration). After adjusting their concentrations to 200 nM, Hp0231 and Hp0231APHA were labeled using a Monolith His-Tag Labeling Kit RED-tris-NTA (NanoTemper Technologies) according to the manufacturer’s instructions. […] To assess binding interactions between the Hp0231/Hp0231APHA proteins and the inhibitory peptides, MST measurements were performed using a NanoTemper ® Monolith NT.115 instrument (NanoTemper Technologies). Samples were prepared according to the manufacturer’s instructions and loaded in Premium coated capillaries (NanoTemper Technologies). Measurements were performed using MO.Control v1.6.1 (NanoTemper Technologies) software. Medium and high MST power were applied at 25°C. The results were analyzed using MO.Affinity Analysis v2.3 (NanoTemper Technologies) and Origin 2019 (OriginLab Corporation). At least three independent measurements were performed for each sample.

Hp0231APHA = molecular target: T2, Hp0231APHA (Helicobacter pylori, UniProt O25017, C159A/C162A); assay: Microscale thermophoresis (MST) binding of inhibitory peptides to Hp0231APHA (inactive form)
T2 sequence (O25017 1-265 C159A/C162A): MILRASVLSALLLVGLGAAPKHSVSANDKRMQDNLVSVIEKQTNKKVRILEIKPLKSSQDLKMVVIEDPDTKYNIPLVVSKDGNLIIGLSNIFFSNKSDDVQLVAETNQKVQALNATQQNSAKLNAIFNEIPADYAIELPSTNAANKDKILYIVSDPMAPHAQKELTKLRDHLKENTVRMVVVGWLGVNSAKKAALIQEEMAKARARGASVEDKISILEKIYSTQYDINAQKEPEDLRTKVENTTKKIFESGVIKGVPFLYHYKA

Hp0231 [2] = molecular target: T1, Hp0231; assay: Peptide inhibitory activity assay (time-resolved Eu3+ fluorescence peptide oxidation assay); assay type: biochemical; details: 160 nM Hp0231, […] GSSG, 8 µM substrate S1 or S2, pH 5.5
Procedure: The peptide oxidation assay was performed as described previously ([Vivian et al., 2009]; [Kurth et al., 2014]) with slight modification. Briefly, peptide substrates (S1—[…]; S2—[…]) with DOTA (1,4,7,10-tetraazacycclododecane-1,4,7,10-tetraacetic acid) coupled at the N-terminus, and a methylcoumarin amide coupled to the Ɛ-amino group of the C-terminal lysine, were custom synthesized by Eurogentec. The lyophilized peptides were resuspended in 100 mM imidazole (pH 6.0) to a concentration of 2 mM. Freshly prepared 100 mM europium trifluoromethanesulfonate (Eu^3+) solution was added to each peptide at a final concentration of 4 mM and the mixtures incubated for 5 min at room temperature to permit Eu^3+ chelation. Eu^3+ was complexed with DOTA in order to facilitate observation of the oxidation rate of cysteine residues in the substrate peptide, leading to the formation of a disulfide bond. This process brings the methylcoumarin antenna into close contact with the DOTA-Eu^3+ fluorophore, resulting in an increase in Eu^3+ fluorescence. Thus, fluorescence could be used to monitor the capacity of Hp0231 or Hp0231APHA to catalyze disulfide bond formation.
Assays were conducted using an Infinite® M Nano + plate reader (Tecan) with an excitation wavelength of 340 nm and emission wavelength 615 nm. There was a 150 µs delay before reading and time-resolved fluorescence was measured over a period of 100 µs. The assay was performed in white 384-well plates (Perkin Elmer, OptiPlate-384). Each well contained 50 μL, which included the reaction buffer consisting of 50 mM MES, 50 mM NaCl, 2 mM EDTA (pH 5.5), 160 nM protein (either Hp0231 or Hp0231APHA), 1.6 mM GSSG (oxidized glutathione) and 8 µM substrate peptide which was added last to initiate the reaction. Three control reactions were included in each experiment: 1) reaction buffer, GSSG and a protein; 2) reaction buffer and substrate peptide; 3) reaction buffer, substrate peptide and GSSG. Measurements were made for three replicate samples and mean values are presented, with the standard error of the mean indicated by error bars. […]

E. coli DsbA = tested on: E. coli DsbA; set-up: method as in Duprez et al. (2015); details: ref Duprez et al. (2015); cited from earlier work
[3] = MST, pseudo-titration mode, 25°C, Hp0231, mean of three experiments ± S.D., NB = not binding
[4] = MST, pseudo-titration mode, 25°C, Hp0231APHA (CPHC to APHA, inactive), NB = not binding
[5] = MST, pseudo-titration mode, 25°C, Hp0231APHA (CPHC to APHA, inactive), NB = not binding, read-out: K D

Row | Molecule | K D (Hp0231 [1]; [3]) | Kd (Hp0231APHA) [µM] | Inhibition of Hp0231-catalyzed oxidation of substrate peptides (Eu3+ fluorescence increase) (Hp0231 [2]; inhibitory peptide 0.75 mM) | Kd (Hp0231 [1]; [3]) [µM] | K D (Hp0231APHA; [4]) | Kd (Hp0231APHA; [5]) [µM] | Inhibition of Hp0231-catalyzed oxidation of substrate peptides (Eu3+ fluorescence increase) (Hp0231 [2]; inhibitory peptide 1 mM) | Kd (Hp0231 [1]) [µM] | Kd (E. coli DsbA) [µM]
1 | CC(=O)N[C@@H](Cc1c[nH]cn1)C(=O)N[C@@H](CCC(N)=O)C(=O)N[C@@H](CO)C(=O)N[C@@H](CS)C(=O)N[C@@H](C)C(=O)N[C@@H](CS)C(=O)N[C@@H](CCC(=O)O)C(=O)N[C@@H](CC(C)C)C(N)=O [WAW8] (Ac-HQSCACEL-NH2) | two binding affinities (low and high) | 1.3 ± 0.2 | the reaction rate was significantly reduced |  |  |  |  |  | 
2 | Ac-HQSALYEL-NH2 [WAW6] |  |  |  | > 1000 | did not bind; also recorded: no binding | > 1000 | did not yield a significant alteration in the fluorescence intensity |  | 
3 | Ac-HQSCAYEL-NH2 [WAW7] | low affinity |  |  |  | no interaction | > 1000 | inhibition of the fluorescence intensity increase | 112 ± 21 | 
4 | PSPFATCDF |  |  |  |  |  |  |  |  | 4
